# Results as given in US11083725B2 (priority 2014, dated 2021).
# System: NHBE cells
# Assay: Biolog metabolic array: substrate use by NHBE cells with or without CA09 infection
# Type: cell-based, human
# Details: for Substrate use, 590 nm absorbance normalized to zero hour, 0 hr: Biolog PMM2, 0 hr; for Substrate use, 590 nm absorbance normalized to zero hour, 1 hr: Biolog PMM2, 1 hr; for Substrate use, 590 nm absorbance normalized to zero hour, 5 hr: Biolog PMM2, 5 hr; for Substrate use, 590 nm absorbance normalized to zero hour, 7 hr: Biolog PMM2, 7 hr
# [1] = Control (uninfected) NHBE cells
# [2] = Virus (CA09-infected, MOI 1) NHBE cells
# [3] = Virus: CA09-infected NHBE cells, MOI 1, Biolog PMM2
# [4] = Virus (CA09, MOI 1) infected NHBE cells
Structure (SMILES),"590 nm absorbance normalized to zero hour (substrate use), 0 hr [1]","590 nm absorbance normalized to zero hour (substrate use), 1 hr [1]","590 nm absorbance normalized to zero hour (substrate use), 2 hr [1]","590 nm absorbance normalized to zero hour (substrate use), 3 hr [1]","590 nm absorbance normalized to zero hour (substrate use), 4 hr [1]","590 nm absorbance normalized to zero hour (substrate use), 6 hr [1]","590 nm absorbance normalized to zero hour (substrate use), 8 hr [1]","590 nm absorbance normalized to zero hour (substrate use), 9 hr [1]","590 nm absorbance normalized to zero hour (substrate use), 10 hr [1]","590 nm absorbance normalized to zero hour (substrate use), 11 hr [1]","Substrate use, 590 nm absorbance normalized to zero hour, 0 hr [1]","Substrate use, 590 nm absorbance normalized to zero hour, 1 hr [1]","Substrate use, 590 nm absorbance normalized to zero hour, 5 hr [1]","Substrate use, 590 nm absorbance normalized to zero hour, 7 hr [1]","590 nm absorbance normalized to zero hour (substrate use), 0 hr [2]","590 nm absorbance normalized to zero hour (substrate use), 1 hr [2]","590 nm absorbance normalized to zero hour (substrate use), 2 hr [2]","590 nm absorbance normalized to zero hour (substrate use), 3 hr [2]","590 nm absorbance normalized to zero hour (substrate use), 4 hr [2]","590 nm absorbance normalized to zero hour (substrate use), 6 hr [2]",other results
C[C@@H](O)CC(=O)O [b-Hydroxy-Butyric Acid],1.00,1.65,2.08,2.16,2.31,2.37,2.68,2.90,3.02,7.04,1.00,1.65,2.75,2.49,1.00,1.78,2.31,2.61,2.77,3.34,"590 nm absorbance normalized to zero hour (substrate use), 5 hr [2]: 3.16; 590 nm absorbance normalized to zero hour (substrate use), 7 hr [2]: 3.47; 590 nm absorbance normalized to zero hour (substrate use), 8 hr [2]: 3.62; 590 nm absorbance normalized to zero hour (substrate use), 9 hr [2]: 3.79; 590 nm absorbance normalized to zero hour (substrate use), 10 hr [2]: 3.87; 590 nm absorbance normalized to zero hour (substrate use), 11 hr [2]: 3.29; 590 nm absorbance normalized to zero hour (substrate use), 0 hr [3]: 1.00; 590 nm absorbance normalized to zero hour (substrate use), 1 hr [3]: 1.78; 590 nm absorbance normalized to zero hour (substrate use), 2 hr [3]: 2.31; 590 nm absorbance normalized to zero hour (substrate use), 3 hr [3]: 2.61; 590 nm absorbance normalized to zero hour (substrate use), 4 hr [3]: 2.77; 590 nm absorbance normalized to zero hour (substrate use), 5 hr [3]: 3.16; 590 nm absorbance normalized to zero hour (substrate use), 6 hr [3]: 3.34; 590 nm absorbance normalized to zero hour (substrate use), 7 hr [3]: 3.47; 590 nm absorbance normalized to zero hour (substrate use), 8 hr [3]: 3.62; 590 nm absorbance normalized to zero hour (substrate use), 9 hr [3]: 3.79; 590 nm absorbance normalized to zero hour (substrate use), 10 hr [3]: 3.87; 590 nm absorbance normalized to zero hour (substrate use), 11 hr [3]: 3.29"
CO[C@@H]1O[C@H](CO)[C@H](O)[C@H](O)[C@H]1O [b-Methyl-D-Galactoside],1.00,0.52,0.68,0.78,0.87,1.28,1.24,1.36,1.54,1.61,1.00,0.52,1.05,1.17,1.00,0.74,0.95,1.11,1.18,1.45,"590 nm absorbance normalized to zero hour (substrate use), 5 hr [2]: 1.36; 590 nm absorbance normalized to zero hour (substrate use), 7 hr [2]: 1.52; 590 nm absorbance normalized to zero hour (substrate use), 8 hr [2]: 1.60; 590 nm absorbance normalized to zero hour (substrate use), 9 hr [2]: 1.76; 590 nm absorbance normalized to zero hour (substrate use), 10 hr [2]: 1.81; 590 nm absorbance normalized to zero hour (substrate use), 11 hr [2]: 1.96; 590 nm absorbance normalized to zero hour (substrate use), 0 hr [3]: 1.00; 590 nm absorbance normalized to zero hour (substrate use), 1 hr [3]: 0.74; 590 nm absorbance normalized to zero hour (substrate use), 2 hr [3]: 0.95; 590 nm absorbance normalized to zero hour (substrate use), 3 hr [3]: 1.11; 590 nm absorbance normalized to zero hour (substrate use), 4 hr [3]: 1.18; 590 nm absorbance normalized to zero hour (substrate use), 5 hr [3]: 1.36; 590 nm absorbance normalized to zero hour (substrate use), 6 hr [3]: 1.45; 590 nm absorbance normalized to zero hour (substrate use), 7 hr [3]: 1.52; 590 nm absorbance normalized to zero hour (substrate use), 8 hr [3]: 1.60; 590 nm absorbance normalized to zero hour (substrate use), 9 hr [3]: 1.76; 590 nm absorbance normalized to zero hour (substrate use), 10 hr [3]: 1.81; 590 nm absorbance normalized to zero hour (substrate use), 11 hr [3]: 1.96"
CO[C@@H]1O[C@H](CO)[C@@H](O)[C@H](O)[C@H]1O [b-Methyl-D-Glucoside],1.00,1.32,1.80,1.84,2.02,1.04,3.05,3.33,3.70,4.24,1.00,1.32,2.32,2.85,1.00,2.00,2.80,3.24,3.45,4.32,"Substrate use, 590 nm absorbance normalized to zero hour, 0 hr [4]: 1.00; Substrate use, 590 nm absorbance normalized to zero hour, 1 hr [4]: 2.00; Substrate use, 590 nm absorbance normalized to zero hour, 5 hr [4]: 3.99; Substrate use, 590 nm absorbance normalized to zero hour, 7 hr [4]: 4.57; 590 nm absorbance normalized to zero hour (substrate use), 8 hr [2]: 4.86; 590 nm absorbance normalized to zero hour (substrate use), 9 hr [2]: 5.41; 590 nm absorbance normalized to zero hour (substrate use), 10 hr [2]: 5.67; 590 nm absorbance normalized to zero hour (substrate use), 11 hr [2]: 6.22"
CO[C@@H]1OC[C@@H](O)[C@H](O)[C@H]1O [b-Methyl-D-Xyloside],1.00,1.53,6.40,1.59,1.73,1.14,4.02,2.33,2.61,3.03,1.00,1.53,2.08,4.46,1.00,1.92,2.38,2.79,2.82,3.28,"590 nm absorbance normalized to zero hour (substrate use), 5 hr [2]: 3.12; 590 nm absorbance normalized to zero hour (substrate use), 7 hr [2]: 3.39; 590 nm absorbance normalized to zero hour (substrate use), 8 hr [2]: 3.52; 590 nm absorbance normalized to zero hour (substrate use), 9 hr [2]: 3.77; 590 nm absorbance normalized to zero hour (substrate use), 10 hr [2]: 3.87; 590 nm absorbance normalized to zero hour (substrate use), 11 hr [2]: 4.01; 590 nm absorbance normalized to zero hour (substrate use), 0 hr [3]: 1.00; 590 nm absorbance normalized to zero hour (substrate use), 1 hr [3]: 1.92; 590 nm absorbance normalized to zero hour (substrate use), 2 hr [3]: 2.38; 590 nm absorbance normalized to zero hour (substrate use), 3 hr [3]: 2.79; 590 nm absorbance normalized to zero hour (substrate use), 4 hr [3]: 2.82; 590 nm absorbance normalized to zero hour (substrate use), 5 hr [3]: 3.12; 590 nm absorbance normalized to zero hour (substrate use), 6 hr [3]: 3.28; 590 nm absorbance normalized to zero hour (substrate use), 7 hr [3]: 3.39; 590 nm absorbance normalized to zero hour (substrate use), 8 hr [3]: 3.52; 590 nm absorbance normalized to zero hour (substrate use), 9 hr [3]: 3.77; 590 nm absorbance normalized to zero hour (substrate use), 10 hr [3]: 3.87; 590 nm absorbance normalized to zero hour (substrate use), 11 hr [3]: 4.01"
